# From patent US12077503B2, “Substituted cyclic amides and their use as herbicides” (FMC CORPORATION, priority 2015, dated 2024)
# Tests used:
# Type in all cases: in vivo
# [1] = test system: ragweed (common ragweed, Ambrosia elatior); assay: Test A postemergence; settings: Ambrosia artemisiifolia, post-emergence, 240 h; for pest or weed control at 125 g/ha: 125 g ai/ha, postemergence, visual injury on 0 to 100 scale (0 no effect, 100 complete control), approx. 10 d, read-out: Ragweed plant response rating; for pest or weed control at 31 g/ha: Postemergence, 31 g ai/ha, visual injury after approx. 10 d, 0 to 100 scale, 0 no effect, 100 complete control, read-out: Plant response rating, Ragweed
# Procedure, shortened: (§1)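 Ratings of 0 (no effect) to 100 (complete control) come from visual comparison with untreated controls roughly 10 d after treatment. Test chemicals, formulated in a non-phytotoxic solvent mixture with surfactant, were applied either as a preemergence directed soil spray on seeded soil or postemergence to one- to two-leaf plants 2 to 10 cm tall.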
# [2] = test system: blackgrass (Alopecurus myosuroides); assay: Test A postemergence; settings: Alopecurus myosuroides, post-emergence, 240 h; for pest or weed control at 125 g/ha: 125 g ai/ha, postemergence, visual injury on 0 to 100 scale (0 no effect, 100 complete control), approx. 10 d, read-out: Blackgrass plant response rating; for pest or weed control at 31 g/ha: Postemergence, 31 g ai/ha, visual injury after approx. 10 d, 0 to 100 scale, 0 no effect, 100 complete control, read-out: Plant response rating, Blackgrass
# Procedure, shortened: as §1
# corn (Zea mays) = assay: Test A postemergence; settings: Zea mays, post-emergence, 240 h; for plant injury at 125 g/ha: 125 g ai/ha, postemergence, visual injury on 0 to 100 scale (0 no effect, 100 complete control), approx. 10 d, read-out: Corn plant response rating; for Corn plant response rating (crop injury, 0 = no effect, 100 = complete kill) at 31 g/ha: Postemergence, 31 g ai/ha, visual injury after approx. 10 d, 0 to 100 scale, 100 complete control
# Procedure, shortened: as §1
# [3] = test system: pigweed (Amaranthus retroflexus); assay: Test A postemergence; settings: Amaranthus retroflexus, post-emergence, 240 h; for pest or weed control at 125 g/ha: 125 g ai/ha, postemergence, visual injury on 0 to 100 scale (0 no effect, 100 complete control), approx. 10 d, read-out: Pigweed plant response rating; for pest or weed control at 31 g/ha: Postemergence, 31 g ai/ha, visual injury after approx. 10 d, 0 to 100 scale, 0 no effect, 100 complete control, read-out: Plant response rating, Pigweed
# Procedure, shortened: as §1
# Kochia (Kochia scoparia) [4] = assay: Test A postemergence; settings: Bassia scoparia, post-emergence, 240 h; for pest or weed control at 125 g/ha: 125 g ai/ha, postemergence, visual injury on 0 to 100 scale (0 no effect, 100 complete control), approx. 10 d, read-out: Kochia plant response rating; for pest or weed control at 31 g/ha: Postemergence, 31 g ai/ha, visual injury after approx. 10 d, 0 to 100 scale, 0 no effect, 100 complete control, read-out: Plant response rating, Kochia
# Procedure, shortened: as §1
# [5] = test system: barnyardgrass (Echinochloa crus-galli); assay: Test A postemergence; settings: Echinochloa crus-galli, post-emergence, 240 h; for pest or weed control at 125 g/ha: 125 g ai/ha, postemergence, visual injury on 0 to 100 scale (0 no effect, 100 complete control), approx. 10 d, read-out: Barnyardgrass plant response rating; for pest or weed control at 31 g/ha: Postemergence, 31 g ai/ha, visual injury after approx. 10 d, 0 to 100 scale, 0 no effect, 100 complete control, read-out: Plant response rating, Barnyardgrass
# Procedure, shortened: as §1
# [6] = test system: ryegrass, Italian (Italian ryegrass, Lolium multiflorum); assay: Test A postemergence; settings: Lolium multiflorum, post-emergence, 240 h; for pest or weed control at 125 g/ha: 125 g ai/ha, postemergence, visual injury on 0 to 100 scale (0 no effect, 100 complete control), approx. 10 d, read-out: Ryegrass, Italian plant response rating; for pest or weed control at 31 g/ha: Postemergence, 31 g ai/ha, visual injury after approx. 10 d, 0 to 100 scale, 0 no effect, 100 complete control, read-out: Plant response rating, Ryegrass, Italian
# Procedure, shortened: as §1
# [7] = test system: Galium (catchweed bedstraw, Galium aparine); assay: Test A postemergence; settings: Galium, post-emergence, 240 h; for pest or weed control at 125 g/ha: 125 g ai/ha, postemergence, visual injury on 0 to 100 scale (0 no effect, 100 complete control), approx. 10 d, read-out: Galium plant response rating; for pest or weed control at 31 g/ha: Postemergence, 31 g ai/ha, visual injury after approx. 10 d, 0 to 100 scale, 0 no effect, 100 complete control, read-out: Plant response rating, Galium
# Procedure, shortened: as §1
# [8] = test system: wheat (Triticum aestivum); assay: Test A postemergence; settings: Triticum aestivum, post-emergence, 240 h; for plant injury at 125 g/ha: 125 g ai/ha, postemergence, visual injury on 0 to 100 scale (0 no effect, 100 complete control), approx. 10 d, read-out: Wheat plant response rating; for plant injury at 31 g/ha: Postemergence, 31 g ai/ha, visual injury after approx. 10 d, 0 to 100 scale, 0 no effect, 100 complete control, read-out: Plant response rating, Wheat
# Procedure, shortened: as §1
# [9] = test system: giant foxtail (Setaria faberii); assay: Test A postemergence; settings: Setaria faberi, post-emergence, 240 h; for pest or weed control at 125 g/ha: 125 g ai/ha, postemergence, visual injury on 0 to 100 scale (0 no effect, 100 complete control), approx. 10 d, read-out: Foxtail, Giant plant response rating; for pest or weed control at 31 g/ha: Postemergence, 31 g ai/ha, visual injury after approx. 10 d, 0 to 100 scale, 0 no effect, 100 complete control, read-out: Plant response rating, Foxtail, Giant
# Procedure, shortened: as §1
# rice (Oryra sativa) = assay: Test B flooded paddy test; settings: Oryza sativa, 250 g ai/ha, Flood; 0 to 100 scale where 0 is no effect and 100 is complete control; read-out: Rice plant response rating
# Procedure, shortened: (§2)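 Rating scale 0–100 (visual, vs untreated controls) after a 13–15 d greenhouse period; application to the flood layer, 3 cm above soil and maintained; plants at 2-leaf stage when treated.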
# [10] = test system: ducksalad (Heteranthera limosa); assay: Test B flooded paddy test; settings: Heteranthera limosa, 250 g ai/ha, Flood; 0 to 100 scale where 0 is no effect and 100 is complete control; read-out: Ducksalad plant response rating
# Procedure, shortened: as §2
# [11] = test system: sedge, umbrella (small-flower umbrella sedge, Cyperus difformis); assay: Test B flooded paddy test; settings: Cyperus difformis, 250 g ai/ha, Flood; 0 to 100 scale where 0 is no effect and 100 is complete control; read-out: Sedge, Umbrella plant response rating
# Procedure, shortened: as §2
# [12] = test system: barnyardgrass (Echinochloa crus-galli); assay: Test B flooded paddy test; settings: Echinochloa crus-galli, 250 g ai/ha, Flood; 0 to 100 scale where 0 is no effect and 100 is complete control; read-out: Barnyardgrass plant response rating
# Procedure, shortened: as §2
# [13] = test system: ragweed (common ragweed, Ambrosia elatior); assay: Test A preemergence; settings: Ambrosia artemisiifolia, pre-emergence, 240 h, 0 to 100 scale where 0 is no effect and 100 is complete control, read-out: Ragweed plant response rating; for pest or weed control at 31 g/ha: 31 g ai/ha, Preemergence; for pest or weed control at 125 g/ha: 125 g ai/ha, preemergence, approx. 10 d
# Procedure, shortened: as §1
# [14] = test system: pigweed (Amaranthus retroflexus); assay: Test A preemergence; settings: Amaranthus retroflexus, pre-emergence, 240 h, 0 to 100 scale where 0 is no effect and 100 is complete control, read-out: Pigweed plant response rating; for pest or weed control at 31 g/ha: 31 g ai/ha, Preemergence; for pest or weed control at 125 g/ha: 125 g ai/ha, preemergence, approx. 10 d
# Kochia (Kochia scoparia) [15] = assay: Test A preemergence; settings: Bassia scoparia, pre-emergence, 240 h, 0 to 100 scale where 0 is no effect and 100 is complete control, read-out: Kochia plant response rating; for pest or weed control at 31 g/ha: 31 g ai/ha, Preemergence; for pest or weed control at 125 g/ha: 125 g ai/ha, preemergence, approx. 10 d
# Procedure, shortened: as §1
# [16] = test system: barnyardgrass (Echinochloa crus-galli); assay: Test A preemergence; settings: Echinochloa crus-galli, pre-emergence, 240 h, 0 to 100 scale where 0 is no effect and 100 is complete control, read-out: Barnyardgrass plant response rating; for pest or weed control at 31 g/ha: 31 g ai/ha, Preemergence; for pest or weed control at 125 g/ha: 125 g ai/ha, preemergence, approx. 10 d
# Procedure, shortened: as §1
# [17] = test system: ryegrass, Italian (Italian ryegrass, Lolium multiflorum); assay: Test A preemergence; settings: Lolium multiflorum, pre-emergence, 240 h, 0 to 100 scale where 0 is no effect and 100 is complete control, read-out: Ryegrass, Italian plant response rating; for pest or weed control at 31 g/ha: 31 g ai/ha, Preemergence; for pest or weed control at 125 g/ha: 125 g ai/ha, preemergence, approx. 10 d
# Procedure, shortened: as §1
# [18] = test system: giant foxtail (Setaria faberii); assay: Test A preemergence; settings: Setaria faberi, pre-emergence, 240 h, 0 to 100 scale where 0 is no effect and 100 is complete control, read-out: Foxtail, Giant plant response rating; for pest or weed control at 31 g/ha: 31 g ai/ha, Preemergence; for pest or weed control at 125 g/ha: 125 g ai/ha, preemergence, approx. 10 d
# Procedure, shortened: as §1
structure (smiles),measurement,setting,value
Cc1ccc([C@H]2CN(C)C(=O)[C@@H]2C(=O)Nc2cnccc2C)cc1 [Compound 1070],pest or weed control at 125 g/ha,[1],0%
same,pest or weed control at 31 g/ha,[1],0%
same,pest or weed control at 125 g/ha,[2],0%
same,pest or weed control at 31 g/ha,[2],0%
same,plant injury at 125 g/ha,corn (Zea mays),0%
same,"Corn plant response rating (crop injury, 0 = no effect, 100 = complete kill) at 31 g/ha",corn (Zea mays),0%
same,pest or weed control at 125 g/ha,[3],0%
same,pest or weed control at 31 g/ha,[3],0%
same,pest or weed control at 125 g/ha,Kochia (Kochia scoparia) [4],0%
same,pest or weed control at 31 g/ha,Kochia (Kochia scoparia) [4],0%
same,pest or weed control at 125 g/ha,[5],0%
same,pest or weed control at 31 g/ha,[5],0%
same,pest or weed control at 125 g/ha,[6],0%
same,pest or weed control at 31 g/ha,[6],0%
same,pest or weed control at 125 g/ha,[7],0%
same,pest or weed control at 31 g/ha,[7],0%
same,plant injury at 125 g/ha,[8],0%
same,plant injury at 31 g/ha,[8],0%
same,pest or weed control at 125 g/ha,[9],0%
same,pest or weed control at 31 g/ha,[9],0%
same,pest or weed control at 250 g/ha,rice (Oryra sativa),0%
same,pest or weed control at 250 g/ha,[10],80%
same,pest or weed control at 250 g/ha,[11],0%
same,pest or weed control at 250 g/ha,[12],0%
same,pest or weed control at 31 g/ha,[13],0%
same,pest or weed control at 125 g/ha,[13],0%
same,pest or weed control at 31 g/ha,[14],0%
same,pest or weed control at 125 g/ha,[14],0%
same,pest or weed control at 31 g/ha,Kochia (Kochia scoparia) [15],0%
same,pest or weed control at 125 g/ha,Kochia (Kochia scoparia) [15],0%
same,pest or weed control at 31 g/ha,[16],0%
same,pest or weed control at 125 g/ha,[16],0%
same,pest or weed control at 31 g/ha,[17],0%
same,pest or weed control at 125 g/ha,[17],0%
same,pest or weed control at 31 g/ha,[18],0%
same,pest or weed control at 125 g/ha,[18],60%
COc1cccc([C@H]2CN(C)C(=O)[C@@H]2C(=O)Nc2cccc(F)c2F)c1F [Compound 1072],pest or weed control at 125 g/ha,[1],0%
same,pest or weed control at 31 g/ha,[1],0%
same,pest or weed control at 125 g/ha,[2],20%
same,pest or weed control at 31 g/ha,[2],0%
same,plant injury at 125 g/ha,corn (Zea mays),0%
same,"Corn plant response rating (crop injury, 0 = no effect, 100 = complete kill) at 31 g/ha",corn (Zea mays),0%
same,pest or weed control at 125 g/ha,[3],0%
same,pest or weed control at 31 g/ha,[3],0%
same,pest or weed control at 125 g/ha,Kochia (Kochia scoparia) [4],0%
same,pest or weed control at 31 g/ha,Kochia (Kochia scoparia) [4],0%
same,pest or weed control at 125 g/ha,[5],100%
same,pest or weed control at 31 g/ha,[5],90%
same,pest or weed control at 125 g/ha,[6],30%
same,pest or weed control at 31 g/ha,[6],0%
same,pest or weed control at 125 g/ha,[7],0%
same,pest or weed control at 31 g/ha,[7],0%
same,plant injury at 125 g/ha,[8],20%
same,plant injury at 31 g/ha,[8],0%
same,pest or weed control at 125 g/ha,[9],90%
same,pest or weed control at 31 g/ha,[9],80%
same,pest or weed control at 250 g/ha,rice (Oryra sativa),15%
same,pest or weed control at 250 g/ha,[10],80%
same,pest or weed control at 250 g/ha,[11],0%
same,pest or weed control at 250 g/ha,[12],70%
same,pest or weed control at 31 g/ha,[13],0%
same,pest or weed control at 125 g/ha,[13],0%
same,pest or weed control at 31 g/ha,[14],0%
same,pest or weed control at 125 g/ha,[14],0%
same,pest or weed control at 31 g/ha,Kochia (Kochia scoparia) [15],0%
same,pest or weed control at 125 g/ha,Kochia (Kochia scoparia) [15],0%
same,pest or weed control at 31 g/ha,[16],90%
same,pest or weed control at 125 g/ha,[16],100%
same,pest or weed control at 31 g/ha,[17],0%
same,pest or weed control at 125 g/ha,[17],0%
same,pest or weed control at 31 g/ha,[18],90%
same,pest or weed control at 125 g/ha,[18],100%
